Publication PMC3348135, “Identification of New Agonists and Antagonists of the Insect Odorant Receptor Co-Receptor Subunit” (PLoS ONE, 2012)
Where two headings read alike, the source gives them in different places.

What was measured:
[1] = biological target: T1, Dmel\Orco + Dmel\Or35a (Drosophila melanogaster, UniProt Q9VNB5); assay: Inhibition of OLC12 activation of Dmel\Orco + Dmel\Or35a in Xenopus oocytes; type: cell-based
T1 construct: expressed in transfected cells; host or cells: Xenopus laevis oocytes (cRNA injection, pGEMHE)
T1 sequence (Q9VNB5 1-486): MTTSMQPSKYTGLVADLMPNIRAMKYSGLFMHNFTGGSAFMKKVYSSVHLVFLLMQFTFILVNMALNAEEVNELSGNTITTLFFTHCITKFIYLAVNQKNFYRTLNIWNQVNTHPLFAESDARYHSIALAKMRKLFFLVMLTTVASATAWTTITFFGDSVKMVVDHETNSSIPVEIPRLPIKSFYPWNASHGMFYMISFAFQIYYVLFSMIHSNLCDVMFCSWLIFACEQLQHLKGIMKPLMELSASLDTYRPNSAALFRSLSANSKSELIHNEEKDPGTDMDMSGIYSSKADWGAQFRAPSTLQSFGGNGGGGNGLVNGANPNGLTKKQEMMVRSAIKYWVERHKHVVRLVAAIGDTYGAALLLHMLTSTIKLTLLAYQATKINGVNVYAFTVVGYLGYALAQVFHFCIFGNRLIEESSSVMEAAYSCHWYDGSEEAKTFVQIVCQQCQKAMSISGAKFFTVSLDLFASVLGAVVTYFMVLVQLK
T1 sequence (Q9V3Q2 1-409 partner): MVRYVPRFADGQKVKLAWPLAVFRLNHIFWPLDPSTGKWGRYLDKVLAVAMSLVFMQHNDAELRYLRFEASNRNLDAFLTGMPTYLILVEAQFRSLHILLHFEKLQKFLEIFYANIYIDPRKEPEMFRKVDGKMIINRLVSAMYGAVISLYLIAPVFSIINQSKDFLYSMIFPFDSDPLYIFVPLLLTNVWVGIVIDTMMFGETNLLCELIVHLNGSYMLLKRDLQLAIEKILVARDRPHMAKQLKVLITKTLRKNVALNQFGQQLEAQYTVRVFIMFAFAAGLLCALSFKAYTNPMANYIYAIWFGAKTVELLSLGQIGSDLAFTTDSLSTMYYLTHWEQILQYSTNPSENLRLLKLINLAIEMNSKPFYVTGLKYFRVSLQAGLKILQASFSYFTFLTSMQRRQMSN
Method: (§1) Oocytes were surgically removed from mature Xenopus laevis frogs. Follicle cells were removed by treatment with Collagenase B (Boehringer Mannhem) for 2 hours at room temperature. Capped cRNA encoding each DmOR subunit was generated using mMessage mMachine kits (Ambion). For heteromeric ORs, 25 ng of cRNA encoding each OR subunit was injected into Stage V-VI Xenopus oocytes. For expression of Orco alone, 50 ng of cRNA was injected. Oocytes were incubated at 18°C in Barth’s saline (in mM: 88 NaCl, 1 KCl, 2.4 NaHCO3, 0.3 CaNO3, 0.41 CaCl2, 0.82 MgSO4, 15 HEPES, pH 7.6, and 150 µg/ml ceftazidime) for 2–5 days prior to electrophysiological recording.
(§2) Odorant and Orco ligand induced currents were recorded under two-electrode voltage clamp in Xenopus laevis oocytes expressing ORs, using an automated parallel electrophysiology system (OpusExpress 6000A; Molecular Devices). Oocytes were perfused with ND96 (in mM: 96 NaCl, 2 KCl, 1 CaCl2, 1 MgCl2, 5 HEPES, pH 7.5). Odorant stock solutions (0.5 or 1 M) and Orco ligand stock solutions (100 mM) were prepared in DMSO and diluted in ND96. Unless otherwise noted, applications were for 60 sec at a flow rate of 1.0 ml/min, with extensive washing in ND96 (9 or 20 min at 4.6 ml/min) between applications. Micropipettes were filled with 3 M KCl and had resistances of 0.2−2.0 MΩ. The holding potential was −70 mV. Current responses, filtered (4-pole, Bessel, low pass) at 20 Hz (−3 db) and sampled at 100 Hz, were captured and stored using OpusXpress 1.1 software (Molecular Devices).
(§3) In inhibition assays, oocytes were exposed to 60 sec applications of OLC12 with 9 min washes between applications (Fig. 3 and 4) or 60 sec applications of odorant with 20 min washes between applications (Fig. 5). Oocytes were then exposed to a 90 sec application of antagonist candidate, immediately followed by a 60 sec co-application of antagonist candidate and OLC12 or odorant. Oocytes were then exposed to a final 60 sec application of OLC12 or odorant. The current response in the presence of antagonist candidate was compared to the preceding response(s) to OLC12 (or odorant) alone.
(§4) Initial analysis of electrophysiological data was done using Clampfit 9.1 software (Molecular Devices). Curve fitting and statistical analyses were done using Prism 5 (Graphpad). Concentration-response data were fit to the equation: I = Imax/(1+(EC50/X)^n) where I represents the current response at a given concentration of odorant, X; Imax is the maximal response; EC50 is the concentration of agonist yielding a half maximal response; n is the apparent Hill coefficient. Concentration-inhibition data were fit to the equation: I = Imax/(1+(X/IC50)^n) where I represents the current response at a given concentration of inhibitor, X; Imax is the maximal response in the absence of inhibitor; IC50 is the concentration of inhibitor present that still allows a half maximal response from odorant; n is the apparent Hill coefficient. Statistical significance was assessed using a two-tailed unpaired t test, an F test, or a one-way analysis of variance followed by the Bonferroni’s post-test, as appropriate.

[2] = biological target: T2, Dmel\Orco (Drosophila melanogaster, UniProt Q9VNB5); assay: Inhibition of OLC12 activation of Dmel\Orco in Xenopus oocytes; type: cell-based; conditions: for IC50: activated by 30 µM OLC12 (EC39)
T2 construct: expressed in transfected cells; host or cells: Xenopus laevis oocytes (cRNA injection, pGEMHE)
T2 sequence (Q9VNB5 1-486): T1 sequence (Q9VNB5 1-486)
Method: as §1, §2, §3, §4

[3] = biological target: T3, Agam\Orco + Agam\Or65 (Anopheles gambiae, UniProt Q7QCC7); assay: Inhibition of odorant (eugenol) activation of Agam\Orco + Agam\Or65 in Xenopus oocytes; type: cell-based, A. gambiae; conditions: 100 nM eugenol; OLC compound 100 µM
T3 construct: expressed in transfected cells; host or cells: Xenopus laevis oocytes (cRNA injection; vectors pSP64T-Oligo and pT7TS)
T3 sequence (Q7QCC7 1-478): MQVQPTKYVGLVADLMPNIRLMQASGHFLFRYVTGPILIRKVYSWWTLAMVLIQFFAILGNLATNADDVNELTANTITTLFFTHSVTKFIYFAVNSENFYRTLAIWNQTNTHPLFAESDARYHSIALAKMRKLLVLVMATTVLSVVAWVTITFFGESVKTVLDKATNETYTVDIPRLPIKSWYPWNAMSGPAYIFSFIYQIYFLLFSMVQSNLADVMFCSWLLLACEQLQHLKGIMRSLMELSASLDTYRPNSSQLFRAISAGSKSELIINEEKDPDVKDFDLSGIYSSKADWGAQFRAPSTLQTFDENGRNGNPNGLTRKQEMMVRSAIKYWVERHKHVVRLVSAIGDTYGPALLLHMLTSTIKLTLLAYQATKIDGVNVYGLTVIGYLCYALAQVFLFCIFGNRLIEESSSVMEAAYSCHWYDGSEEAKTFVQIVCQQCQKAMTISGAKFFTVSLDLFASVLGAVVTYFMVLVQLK

[4] = tested on: Onub\Orco + Onub\Or1; assay: Inhibition of odorant (E12-14:OAc) activation of Onub\Orco + Onub\Or1 in Xenopus oocytes; type: cell-based, Ostrinia nubilalis; conditions: OLC compound 100 µM
Method: as §1
Odorant and Orco ligand induced currents were recorded under two-electrode voltage clamp in Xenopus laevis oocytes expressing ORs, using an automated parallel electrophysiology system (OpusExpress 6000A; Molecular Devices). Oocytes were perfused with ND96 (in mM: 96 NaCl, 2 KCl, 1 CaCl2, 1 MgCl2, 5 HEPES, pH 7.5). Odorant stock solutions (0.5 or 1 M) and Orco ligand stock solutions (100 mM) were prepared in DMSO and diluted in ND96. […]
Initial analysis of electrophysiological data was done using Clampfit 9.1 software (Molecular Devices). […] Statistical significance was assessed using a two-tailed unpaired t test, an F test, or a one-way analysis of variance followed by the Bonferroni’s post-test, as appropriate.

[5] = activated by 10 µM OLC12 (EC25), read-out: IC50, Dmel\Orco + Dmel\Or35a (activated by 10 µM OLC12)

Structure (SMILES) | IC50 [1, 5] [µM] | Inhibition of activation of Dmel\Orco by 30 µM OLC12 on co-application ([2]; 100 µM compound co-applied with 30 µM OLC12) | IC50 [2] [µM] | Inhibition of activation of Agam\Orco+Agam\Or65 by eugenol [3] | Inhibition of activation of Onub\Orco+Onub\Or1 by E12-14:OAc [4] | IC50 ([1]; activated by 100 µM OLC12, read-out: IC50, Dmel\Orco + Dmel\Or35a activated by 100 µM OLC12) [µM]
CCc1ccc(NC(=O)CSc2nnc(-c3ccccn3)n2CC)cc1 [OLC2] | 24 ± 5 | inhibits | 23 ± 3 | inhibited | inhibited | 
CCCCc1ccc(NC(=O)CSc2nnc(-c3ccccn3)n2CC)cc1 [OLC15] | 15 ± 1 |  | 15 ± 2 | inhibited | inhibited | 67 ± 7
